Earlier results in PubChem BioAssay AID1259410 (Chemical Carcinogenesis Research Information System (CCRIS), 2018).
Numbered stars: 1 amine (or outer) side, 2 acyl side, 3 side chain; on linkers, the order of the positions; unused ones are H or OH. Square brackets hold non-standard residues; d marks the D form. Peptide text beside a SMILES is read from it. X1 = O=C(C(N[*:1])c1ccc(OS(=O)(=O)O)cc1)[*:2]

System: rodent tumor promotion studies, tumor incidence
Assay: CCRIS tumor promotion studies
Settings: Doses [Promoter]: 0

C[C@]12CC[C@@H]3c4ccc(O)cc4CC[C@H]3[C@@H]1CC[C@@H]2O
outcome (Carcinogen: N-ETHYL-N-NITROSOUREA, 759-73-9, Doses [Carcinogen]: 12.5 MG/KG IN POLYETHYLENE GLYCOL ONCE, 0.32 MG/PELLET IMPLANTED IN PERSISTENT ESTRUS MICE 1 WK PRIOR TO CARCINOGEN DOSE (STUDY DURATION: 16 WK), Route [Carcinogen]: INTRAUTERINE, Route [Promoter]: SUBCUTANEOUS, Species: MOUSE, Strain/Sex: CD-1/FEMALE): uterus: adenocarcinoma | outcome (Carcinogen: N-ETHYL-N-NITROSOUREA, 759-73-9, Doses [Carcinogen]: 50 MG/KG BW IN POLYETHYLENE GLYCOL ONCE AT 10 WK OF AGE, 0.5% IN CHOLESTEROL PELLET AT 9 WK OF AGE, REMOVED AFTER 8 WK (STUDY DURATION: 15 WK), Route [Carcinogen]: INTRAUTERINE, Route [Promoter]: SUBCUTANEOUS IMPLANT, Species: MOUSE, Strain/Sex: CD-1/FEMALE): uterus: tumor | outcome (Carcinogen: N-ETHYL-N-NITROSOUREA, 759-73-9, Doses [Carcinogen]: 50 MG/KG BW IN POLYETHYLENE GLYCOL ONCE AT 10 WK OF AGE, 0.5% IN CHOLESTEROL PELLET AT 11 WK OF AGE, REMOVED AFTER 8 WK (STUDY DURATION: 15 WK), Route [Carcinogen]: INTRAUTERINE, Route [Promoter]: SUBCUTANEOUS IMPLANT, Species: MOUSE, Strain/Sex: CD-1/FEMALE): uterus: tumor | outcome (Carcinogen: N-ETHYL-N-NITROSOUREA, 759-73-9, Doses [Carcinogen]: 50 MG/KG BW IN POLYETHYLENE GLYCOL ONCE AT 10 WK OF AGE, 0.5% IN CHOLESTEROL PELLET AT 14 WK OF AGE, REMOVED AFTER 8 WK (STUDY DURATION: 15 WK), Route [Carcinogen]: INTRAUTERINE, Route [Promoter]: SUBCUTANEOUS IMPLANT, Species: MOUSE, Strain/Sex: CD-1/FEMALE): uterus: tumor | outcome (Carcinogen: N-ETHYL-N-NITROSOUREA, 759-73-9, Doses [Carcinogen]: 50 MG/KG BW IN POLYETHYLENE GLYCOL ONCE AT 10 WK OF AGE, 0.5% IN CHOLESTEROL PELLET AT 17 WK OF AGE, REMOVED AFTER 8 WK (STUDY DURATION: 15 WK), Route [Carcinogen]: INTRAUTERINE, Route [Promoter]: SUBCUTANEOUS IMPLANT, Species: MOUSE, Strain/Sex: CD-1/FEMALE): uterus: tumor | outcome (Carcinogen: N-METHYL-N'-NITRO-N-NITROSOGUANIDINE, 70-25-7, Doses [Carcinogen]: 50 PPM FOR 60 MIN, 20 PPM IN DIET BEGINNING 14 WK POST CARCINOGEN DOSE (STUDY DURATION: 12 MO), Route [Carcinogen]: IMMERSION, Route [Promoter]: ORAL, Species: FISH, Strain/Sex: RAINBOW TROUT): liver: tumor | outcome (Carcinogen: N-METHYL-N-NITROSOUREA, 684-93-5, Doses [Carcinogen]: 1 MG/100 G BW INJECTED INTO LEFT UTERINE TUBE ONCE, 25 PPM IN DIET FOR 29 WK BEGINNING 1 WK POST CARCINOGEN DOSE (STUDY DURATION: 30 WK), Route [Carcinogen]: INJECTION, Route [Promoter]: ORAL, Species: MOUSE, Strain/Sex: ICR/FEMALE): uterus: adenocarcinoma | outcome (Carcinogen: N-METHYL-N-NITROSOUREA, 684-93-5, Doses [Carcinogen]: 40 MG/KG ONCE AT 50 D OF AGE, 2.5 MG PELLET IMPLANTED ON BACK OF GONADECTOMIZED RATS MAINTAINED ON LOW- IODINE DIET (STUDY DURATION: 30 WK), Route [Carcinogen]: INTRAVENOUS, Route [Promoter]: SUBCUTANEOUS IMPLANT, Species: RAT, Strain/Sex: LONG-EVANS/FEMALE): thyroid: adenoma, carcinoma | outcome (Carcinogen: N-METHYL-N-NITROSOUREA, 684-93-5, Doses [Carcinogen]: 40 MG/KG ONCE AT 50 D OF AGE, 2.5 MG PELLET IMPLANTED ON BACK OF GONADECTOMIZED RATS MAINTAINED ON LOW- IODINE DIET (STUDY DURATION: 30 WK), Route [Carcinogen]: INTRAVENOUS, Route [Promoter]: SUBCUTANEOUS IMPLANT, Species: RAT, Strain/Sex: LONG-EVANS/MALE): thyroid: adenoma, carcinoma | outcome (Doses [Carcinogen]: 0, 125 PPM IN STATIC SOLUTIONS OF WATER FOR 30 MIN ADMINISTERED TO 21 DAY OLD EMBRYOS, 20 PPM BEGINNING 6 WK POST CARCINOGEN TREATMENT AND CONTINUING FOR 5 WK FOLLOWED BY CONTROL DIET FOR 1 WK THEN 0, 10, 20 PPM BEGINNING 6 WK POST CARCINOGEN TREATMENT AND CONTINUING FOR 5 WK FOLLOWED BY CONTROL DIET FOR 1 WK THEN 0, 10, Route [Carcinogen]: IMMERSION, Route [Promoter]: ORAL, Species: FISH, Strain/Sex: MT. SHASTA RAINBOW TROUT): liver: hepatocellular carcinoma or mixed carcinoma or hepatocellular adenoma | outcome (Doses [Carcinogen]: 0.025 PPM IN STATIC SOLUTIONS OF WATER FOR 30 MIN ADMINISTERED TO 21 DAY OLD EMBRYOS, 20 PPM BEGINNING 6 WK POST CARCINOGEN TREATMENT AND CONTINUING FOR 5 WK FOLLOWED BY CONTROL DIET FOR 1 WK THEN 0, 10, 20 PPM BEGINNING 6 WK POST CARCINOGEN TREATMENT AND CONTINUING FOR 5 WK FOLLOWED BY CONTROL DIET FOR 1 WK THEN 0, 10, Route [Carcinogen]: IMMERSION, Route [Promoter]: ORAL, Species: FISH, Strain/Sex: MT. SHASTA RAINBOW TROUT): liver: hepatocellular carcinoma or mixed carcinoma | outcome (Doses [Carcinogen]: 0.25 PPM IN STATIC SOLUTIONS OF WATER FOR 30 MIN, 5 PPM IN DIET BEGINNING 5 WK POST CARCINOGEN TREATMENT AND ALTERNATED EVERY OTHER WK WITH CONTROL DIET FOR DURATION O, Route [Carcinogen]: IMMERSION, Route [Promoter]: ORAL, Species: FISH, Strain/Sex: MT. SHASTA RAINBOW TROUT): liver: hepatocellular carcinoma or mixed carcinoma | outcome (Doses [Carcinogen]: 0.5 PPM FOR 30 MIN, 20 PPM IN DIET BEGINNING 14 WK POST CARCINOGEN DOSE (STUDY DURATION: 12 MO), Route [Carcinogen]: IMMERSION, Route [Promoter]: ORAL, Species: FISH, Strain/Sex: RAINBOW TROUT): liver: tumor

CCC(C)C(NC(=O)C(CCCNC(=N)N)NC(=O)C(Cc1c[nH]cn1)NC(=O)C(CO)NC(=O)C1CCCN1C(=O)C(CC(=O)O)NC(=O)C(CC(C)C)NC(=O)C(CC(N)=O)NC(=O)C(CCC(N)=O)NC(=O)C(CC(C)C)NC(=O)C(CC(N)=O)NC(=O)C(CCCCN)NC(=O)C(NC(=O)C(NC(=O)C(CO)NC(=O)C(CCSC)NC(=O)C(CCCNC(=N)N)NC(=O)CNC(=O)C(CO)NC(=O)C1CCCN1C(=O)C(C)NC(=O)C(N)CCCCN)C(C)CC)C(C)C)C(=O)NC(CO)C(=O)NC(CC(=O)O)C(=O)NC(CCCNC(=N)N)C(=O)NC(CC(=O)O)C(=O)NC(C(=O)NC(CCSC)C(=O)NCC(=O)NC(Cc1c[nH]c2ccccc12)C(=O)NC(CCSC)C(=O)NC(CC(=O)O)C(=O)NC(Cc1ccccc1)C(N)=O)c1ccc(OS(=O)(=O)O)cc1 (stereo not drawn) (H-KAPSGRMSIVKNLQNLDPSHRISDRD[X1]MGWMDF-NH2; configuration not given here)
outcome (Carcinogen: AZASERINE, 115-02-6, Doses [Carcinogen]: 30 MG/KG ON DAYS 19, 26, AND 54 OF AGE, 2.5 UG/KG BW 1/D 3 D/WK FOR 8 MO BEGINNING 4 MO POST FIRST CARCINOGEN DOSE (STUDY DURATION: 8 MO), Route [Carcinogen]: INTRAPERITONEAL, Route [Promoter]: SUBCUTANEOUS, Species: RAT, Strain/Sex: WISTAR/MALE): pancreas: adenoma | outcome (Carcinogen: N-NITROSOBIS(2-OXOPROPYL)AMINE, 60599-38-4, Doses [Carcinogen]: 5 MG/KG 1/WK FOR STUDY DURATION, 30 IDU/KG 3 D/WK FOR 6 WK (STUDY DURATION: 15 WK), Route [Carcinogen]: SUBCUTANEOUS, Route [Promoter]: SUBCUTANEOUS, Species: HAMSTER, Strain/Sex: SYRIAN/MALE): pancreas: adenocarcinoma

Cc1nccc2c1[nH]c1ccccc12
outcome (Carcinogen: N-ETHYL-N-HYDROXYETHYLNITROSAMINE, 13147-25-6, Doses [Carcinogen]: 0.1% IN DRINKING WATER FOR 2 WK, 1000 PPM IN DIET BEGINNING 1 WK POST CARCINOGEN TREATMENT AND CONTINUING FOR 23 WK (STUDY DURATION: 26 WK), Route [Carcinogen]: ORAL, Route [Promoter]: ORAL, Species: RAT, Strain/Sex: F344/MALE): kidney: adenoma

[Cl][Cd][Cl]
outcome (Carcinogen: 3,2'-DIMETHYL-4-AMINOBIPHENYL, 13394-86-0, Doses [Carcinogen]: 50 MG/KG BW IN 0.5 ML CORN OIL 1/2 WK FOR 20 WK, 10 UMOL/KG BW IN SALINE ONCE AT WK 20 (STUDY DURATION: 60 WK), Route [Carcinogen]: SUBCUTANEOUS, Route [Promoter]: INTRAMUSCULAR, Species: RAT, Strain/Sex: F344/MALE): ventral prostate: carcinoma | outcome (Carcinogen: 3,2'-DIMETHYL-4-AMINOBIPHENYL, 13394-86-0, Doses [Carcinogen]: 50 MG/KG BW IN 0.5 ML CORN OIL 1/2 WK FOR 20 WK, 10 UMOL/KG BW IN SALINE ONCE AT WK 20 AND 0, 5 UMOL/KG BW ONCE AT WK 40 (STUDY DURATION: 60 WK), 10 UMOL/KG BW IN SALINE ONCE AT WK 20 AND 0, 5 UMOL/KG BW ONCE AT WK 40 (STUDY DURATION: 60 WK), Route [Carcinogen]: SUBCUTANEOUS, Route [Promoter]: INTRAMUSCULAR, Species: RAT, Strain/Sex: F344/MALE): ventral prostate: carcinoma
